From patent US20210260066A1, “METHOD OF USING MEK INHIBITOR TO PREVENT RADIATION INDUCED FIBROSIS” (THOMAS JEFFERSON UNIVERSITY, priority 2018, published 2021) come the findings set out here.

Series [1] relates to rat peritoneal mesothelial cells. Kind of series: TGF-β induced mesothelial-mesenchymal transition (MMT) of rat peritoneal mesothelial cells. It counts as cell-based. The procedure:
Isolated mesothelial cells were incubated under control conditions without either TGF-β or trametinib, with TGF-β or trametinib alone, or with both TGF-β and trametinib for five days.
These increases in gene expression of phosphor-Erk1/2, FNEDA, αSMA and p-SMAD2 (linker) were blocked by as low a concentration of trametinib as 2 nM.
The experiments in this study were approved by the Institutional Animal Care and Use Committee at Thomas Jefferson University, and were performed in accordance with the National Institutes of Health guidelines for the care and handling of laboratory animals. […]
RPMCs were lysed in ice-cold modified RIPA buffer with protease inhibitor cocktail (50 mM/L Tris-HCl, 1% NP-40, 0.25% Na-deoxycholate, 150 mM/L NaCl, 1 mM/L EDTA, 1 mmol/L phenylmethyl sulfonyl fluoride, 1 mM/L sodium orthovanadate, 1 mM/L NaF, pH 7.4). Equivalent amounts of homogenate (50 μg/well), determined by Coomassie blue assay, were separated by sodium dodecyl sulfate polyacrylamide gel electrophoresis (SDS-PAGE), transferred to either nitrocellulose or PVDF membranes, and detected by SuperSignal West Femto or Pico chemiluminescence.

The subject of a further series is C57BL/6 mice. Conditions: mouse, in vivo. The source says: C57BL/6 mice were used to develop a consistent model of intra-abdominal adhesion formation. Mouse cecums were gently abraded to promote adhesion formation which were subsequently analyzed histologically and immunochemically to characterize the expression of pro-fibrotic genes including (αSMA and FNEDA isoform, both of which were examined immunohistochemically and by quantitative polymerase chain reaction (qPCR). Trichrome staining was used to assess collagen deposition, a major protein component found in the extracellular matrix (ECM) at adhesion sites. Consistent intra-abdominal adhesions in mice were achieved by gentle cecal abrasion with mortality rates of <10%. Adhesions were seen as early as post-operative day 1 with extensive adhesions being formed and vascularized by day 5. Expression of the FNEDA isoform first and subsequently αSMA and collagen occurred during adhesion maturation.
Equal numbers of male and female C57BL/6 mice (18-25 g, 8-10 weeks of age, Jackson Laboratories, Bar Harbor, Me.) were used in initial experiments while only male mice were used in the drug escalation studies because they sustained greater accumulations of fibrotic tissue (data not shown). […]

The test system of the next series is mouse lung fibroblasts. In words: Pro-fibrotic gene expression (qPCR) in bleomycin-treated mouse lung fibroblasts. Conditions: bleomycin alone vs vehicle control. It counts as cell-based. From the text: Indeed, FIGS. 1A, 1B, and 1C depict the ability of trametinib to modulate the expression of pro-fibrotic genes in mouse lung fibroblasts. The three graphs represent expression of (type I collagen and FNEDA) and αSMA. Lung fibroblasts isolated form mouse lungs were placed in cell culture and treated either with saline (control) or bleomycin dissolved in saline and 3 different concentrations of trametinib (2.5, 5 and 10 nmolar) dissolved in DMSO. After treatment with the drug, RNA was extracted and quantified by qPCR. mRNAs for type I collagen (Collal), the FNEDA and αSMA are shown. Control values in FIGS. 1 A, B, and C were set to 100%.

Consider `CC(=O)Nc1cccc(-n2c(=O)n(C3CC3)c(=O)c3c(Nc4ccc(I)cc4F)n(C)c(=O)c(C)c32)c1` [trametinib], for which, in series [1] (TGF-β-treated cells), the “Concentration blocking the increases of phosphor-Erk1/2, FNEDA, αSMA and p-SMAD2 (linker)” value is on record as ≤ 2 nM. Besides, the “Effect of trametinib alone on mesothelial cells (toxicity, appearance)” value in series [1] (trametinib alone, five days) was “no effect and no apparent toxic effects”. In addition, the “Wound healing of abdominal muscles and skin at the laparotomy site” value in the series with C57BL/6 mice is recorded as “no impairment”.

In the case of bleomycin, in the series on mouse lung fibroblasts, the “Increase in expression of Collal mRNA” value is reported as “more than 200%”, the “Increase in expression of FNEDA mRNA” value is given as ~150% and the “Increase in expression of αSMA mRNA” value is on record as “more than 200%”.
